Reference: US8846713B2, “Fused heterocyclic compounds as phosphodiesterases (PDEs) inhibitors” (Takeda Pharmaceutical Company Limited, priority 2010, dated 2014)

What was measured:
Human PDE10A enzyme = target: T1, Human PDE10A enzyme (Homo sapiens, UniProt Q9Y233); assay: PDE enzyme inhibition, SPA (Scintillation Proximity Assay) with [3H]cGMP; type: biochemical; conditions: [3H]cGMP substrate; for inhibition at 1 µM: compound 1 μM, read-out: Percent inhibition (1 μM); for inhibition at 10 µM: compound 10 μM, read-out: Percent inhibition (10 μM)
T1 construct: transfected with the full-length gene; His-tag; made in house; host or cells: Sf9 or COS-7 cells
Experimental: Human PDE10A enzyme was generated from Sf9 or COS-7 cells transfected with the full-length gene. Cloned enzyme was extracted from homogenized cell pellets. The extracted enzyme from sf9 cells was partially purified using His-tag affinity column. The enzyme was stored at −70° C. until use. PDE activity was measured using a SPA (Scintillation Proximity Assay) (GE Healthcare). To evaluate the inhibitory activity, 10 μL of serial diluted compounds were incubated with 20 μL of PDE enzyme in assay buffer (50 mM HEPES-NaOH, 8.3 mM MgCl2, 1.7 mM EGTA, 0.1% BSA (pH 7.4)) for 30 min. at room temperature. Final concentration of DMSO in the assay was 1 percent as compounds were tested in duplicate in 96-well half-area plates (Corning). To start the reaction, 10 μL of substrate [^3H] cGMP (25 or 50 nM; enclosed in SPA kits from GE Healthcare or purchased from PerkinElmer, respectively) was added for a final assay volume of 40 μL. After 60 min incubation at room temperature, yttrium SPA beads containing Zinc sulphate were added (20 μL at 6 mg/mL) to terminate the PDE reaction. After being settled for 60 min, assay plates were counted in a scintillation counter (PerkinElmer) to allow calculation of inhibition rate. Inhibition rate was calculated on the basis of 0% control wells with DMSO and 100% control wells without enzyme.

T1 sequence (Q9Y233 267-1055): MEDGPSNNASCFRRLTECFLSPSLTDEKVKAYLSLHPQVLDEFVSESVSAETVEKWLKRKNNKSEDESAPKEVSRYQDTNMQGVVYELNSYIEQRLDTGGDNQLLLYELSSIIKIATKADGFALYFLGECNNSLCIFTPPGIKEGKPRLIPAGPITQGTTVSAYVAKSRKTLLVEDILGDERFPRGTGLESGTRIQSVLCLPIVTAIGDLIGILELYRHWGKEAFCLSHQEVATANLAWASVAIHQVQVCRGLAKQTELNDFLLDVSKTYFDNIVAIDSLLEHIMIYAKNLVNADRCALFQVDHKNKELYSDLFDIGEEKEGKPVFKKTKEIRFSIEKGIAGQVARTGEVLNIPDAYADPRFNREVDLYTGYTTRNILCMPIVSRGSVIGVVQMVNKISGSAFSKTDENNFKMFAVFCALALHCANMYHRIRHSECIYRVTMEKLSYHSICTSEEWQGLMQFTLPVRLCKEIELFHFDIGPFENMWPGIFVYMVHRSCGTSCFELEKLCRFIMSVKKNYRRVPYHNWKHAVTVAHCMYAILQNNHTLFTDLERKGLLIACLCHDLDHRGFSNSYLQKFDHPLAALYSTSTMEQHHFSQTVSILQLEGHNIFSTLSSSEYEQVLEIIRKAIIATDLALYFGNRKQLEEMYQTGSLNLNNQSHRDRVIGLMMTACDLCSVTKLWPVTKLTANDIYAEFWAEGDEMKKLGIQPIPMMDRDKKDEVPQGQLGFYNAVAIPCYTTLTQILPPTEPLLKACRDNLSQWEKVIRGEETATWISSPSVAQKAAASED

melting point [°C] | inhibition at 1 µM (Human PDE10A enzyme) [%] | inhibition at 10 µM (Human PDE10A enzyme) [%] | SMILES
184 to 186 | – | – | CCn1c(=O)n(-c2ccc(Oc3nc4ccccc4n3C)cc2)c2ncccc21 [Example 19, 1-ethyl-3-{4-[(1-methyl-1H-benzimidazol-2-yl)oxy]phenyl}-1,3-dihydro-2H-imidazo[4,5-b]pyridin-2-one]
220 to 221 | 100 | 101 | CCn1c(=O)n(-c2ccc(-n3ccn4c5ccccc5nc34)cc2)c2ncccc21 [Example 65, 1-Ethyl-3-[4-(1H-imidazo[1,2-a]benzimidazol-1-yl)phenyl]-1,3-dihydro-2H-imidazo[4,5-b]pyridin-2-one]
– | 99 | 106 | Cn1c(Oc2ccc(N3C(=O)C(C)(C)c4cccnc43)cc2)nc2ccccc21 [Example 102, 3,3-dimethyl-1-{4-[(1-methyl-1H-benzimidazol-2-yl)oxy]phenyl}-1,3-dihydro-2H-pyrrolo[2,3-b]pyridin-2-one]
– | 101 | 103 | Cn1c(Oc2ccc(-n3c(=O)n(C4CC4)c4cccnc43)cc2)nc2ccccc21 [Example 103, 1-cyclopropyl-3-{4-[(1-methyl-1H-benzimidazol-2-yl)oxy]phenyl}-1,3-dihydro-2H-imidazo[4,5-b]pyridin-2-one]
208 to 210 | 103 | 102 | CCn1c(=O)n(-c2ccc(Oc3nc4ccccc4n3C)cc2)c2ncc(Cl)cc21 [Example 106, 6-chloro-1-ethyl-3-{4-[(1-methyl-1H-benzimidazol-2-yl)oxy]phenyl}-1,3-dihydro-2H-imidazo[4,5-b]pyridin-2-one]
– | 103 | 102 | CCn1c(=O)n(-c2ccc(Oc3nc4cccnc4n3C)cc2)c2ncc(Cl)cc21 [Example 107, 6-chloro-1-ethyl-3-{4-[(3-methyl-3H-imidazo[4,5-b]pyridin-2-yl)oxy]phenyl}-1,3-dihydro-2H-imidazo[4,5-b]pyridin-2-one]
– | 100 | 102 | CCn1c(=O)n(-c2ccc(Oc3nc4cccnc4n3C)cc2)c2ncc(C#N)cc21 [Example 108, 1-ethyl-3-{4-[(3-methyl-3H-imidazo[4,5-b]pyridin-2-yl)oxy]phenyl}-2-oxo-2,3-dihydro-1H-imidazo[4,5-b]pyridine-6-carbonitrile]
– | 99 | 102 | CCn1c(=O)n(-c2ccc(Oc3nc4ccccc4n3C)cc2)c2ncc(C#N)cc21 [Example 109, 1-ethyl-3-{4-[(1-methyl-1H-benzimidazol-2-yl)oxy]phenyl}-2-oxo-2,3-dihydro-1H-imidazo[4,5-b]pyridine-6-carbonitrile]
– | 99 | 98 | CCn1c(=O)n(-c2ccc(Oc3nc4c(n3C)CCCC4)cc2)c2ncccc21 [Example 112, 1-ethyl-3-{4-[(1-methyl-4,5,6,7-tetrahydro-1H-benzimidazol-2-yl)oxy]phenyl}-1,3-dihydro-2H-imidazo[4,5-b]pyridin-2-one]
– | 100 | 97 | CCn1c(=O)n(-c2ccc(Oc3nc4ccncc4[nH]3)cc2)c2ncccc21 [Example 115, 1-ethyl-3-[4-(3H-imidazo[4,5-c]pyridin-2-yloxy)phenyl]-1,3-dihydro-2H-imidazo[4,5-b]pyridin-2-one]
217 to 219 | 102 | 104 | CCn1c(=O)n(-c2ccc(Oc3nc4cccnc4n3C)cc2)c2ncc(C)cc21 [Example 118, 1-ethyl-6-methyl-3-{4-[(3-methyl-3H-imidazo[4,5-b]pyridin-2-yl)oxy]phenyl}-1,3-dihydro-2H-imidazo[4,5-b]pyridin-2-one]
197 to 198 | 99 | 103 | CCn1c(=O)n(-c2ccc(Oc3nc4cccnc4n3C)cc2)c2ncc(OC)cc21 [Example 119, 1-ethyl-6-methoxy-3-{4-[(3-methyl-3H-imidazo[4,5-b]pyridin-2-yl)oxy]phenyl}-1,3-dihydro-2H-imidazo[4,5-b]pyridin-2-one]
– | 109 | 106 | CCn1c(=O)n(-c2ccc(Oc3nc4cccnc4n3C)cc2)c2nccc(C)c21 [Example 120, 1-ethyl-7-methyl-3-{4-[(3-methyl-3H-imidazo[4,5-b]pyridin-2-yl)oxy]phenyl}-1,3-dihydro-2H-imidazo[4,5-b]pyridin-2-one]
– | 96 | 101 | CC1(C)C(=O)N(c2ccc(Oc3cn4ccccc4n3)cc2)c2ncccc21 [Example 123, 1-[4-(imidazo[1,2-a]pyridin-2-yloxy)phenyl]-3,3-dimethyl-1,3-dihydro-2H-pyrrolo[2,3-b]pyridin-2-one]
– | 99 | 99 | CCn1c(=O)n(-c2ccc(Oc3cn4ccccc4n3)cc2)c2ncc(C)cc21 [Example 124, 1-ethyl-3-[4-(imidazo[1,2-a]pyridin-2-yloxy)phenyl]-6-methyl-1,3-dihydro-2H-imidazo[4,5-b]pyridin-2-one]
– | 98 | 100 | CC(C)n1c(=O)n(-c2ccc(Oc3nc4cccnc4n3C)cc2)c2ncc(Cl)cc21 [Example 126, 6-chloro-1-(1-methylethyl)-3-{4-[(3-methyl-3H-imidazo[4,5-b]pyridin-2-yl)oxy]phenyl}-1,3-dihydro-2H-imidazo[4,5-b]pyridin-2-one]
– | 104 | 107 | CCn1c(=O)n(-c2ccc(Oc3nc4ccccc4n3C)cc2)c2ncc(F)cc21 [Example 132, 1-ethyl-6-fluoro-3-{4-[(1-methyl-1H-benzimidazol-2-yl)oxy]phenyl}-1,3-dihydro-2H-imidazo[4,5-b]pyridin-2-one]
– | 104 | 101 | CCn1c(=O)n(-c2ccc(Oc3nc4cccnc4n3C)cc2)c2ncc(F)cc21 [Example 133, 1-ethyl-6-fluoro-3-{4-[(3-methyl-3H-imidazo[4,5-b]pyridin-2-yl)oxy]phenyl}-1,3-dihydro-2H-imidazo[4,5-b]pyridin-2-one]
– | 94 | 99 | Cc1ccnc2c1n(C)c(=O)n2-c1ccc(Oc2nc3cccnc3n2C)cc1 [Example 135, 1,7-dimethyl-3-{4-[(3-methyl-3H-imidazo[4,5-b]pyridin-2-yl)oxy]phenyl}-1,3-dihydro-2H-imidazo[4,5-b]pyridin-2-one]
– | 81 | 98 | CCn1c(=O)n(-c2ccc(Oc3nc4cccnc4n3C)cc2)c2c1c(C)cc[n+]2[O-] [Example 136, 1-ethyl-7-methyl-3-{4-[(3-methyl-3H-imidazo[4,5-b]pyridin-2-yl)oxy]phenyl}-1,3-dihydro-2H-imidazo[4,5-b]pyridin-2-one 4-oxide]
– | 88 | 98 | CCn1c(=O)n(-c2ccc(Oc3nc4cccnc4n3C)cc2)c2nccc(COC(C)=O)c21 [Example 137, (1-ethyl-3-{4-[(3-methyl-3H-imidazo[4,5-b]pyridin-2-yl)oxy]phenyl}-2-oxo-2,3-dihydro-1H-imidazo[4,5-b]pyridin-7-yl)methyl acetate]
– | 93 | 105 | CCn1c(=O)n(-c2ccc(Oc3nc4cccnc4n3C)cc2)c2nccc(CO)c21 [Example 138, 1-ethyl-7-(hydroxymethyl)-3-{4-[(3-methyl-3H-imidazo[4,5-b]pyridin-2-yl)oxy]phenyl}-1,3-dihydro-2H-imidazo[4,5-b]pyridin-2-one]
